Experiment [1] addresses T1, CMP-N-acetylneuraminate-beta-1,4-galactoside alpha-2,3-sialyltransferase (Rattus norvegicus, UniProt Q02734).
T1 sequence (Q02734 whole entry): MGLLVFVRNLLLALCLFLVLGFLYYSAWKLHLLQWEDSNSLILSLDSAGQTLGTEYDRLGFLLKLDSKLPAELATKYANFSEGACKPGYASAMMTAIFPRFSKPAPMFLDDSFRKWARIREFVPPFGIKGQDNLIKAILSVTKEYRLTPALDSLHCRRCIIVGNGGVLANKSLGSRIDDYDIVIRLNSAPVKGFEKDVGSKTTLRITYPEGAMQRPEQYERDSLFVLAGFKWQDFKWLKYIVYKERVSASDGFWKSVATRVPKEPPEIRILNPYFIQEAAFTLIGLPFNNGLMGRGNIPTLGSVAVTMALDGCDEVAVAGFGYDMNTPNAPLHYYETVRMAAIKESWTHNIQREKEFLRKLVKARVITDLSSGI
Kind of experiment: Inhibitory activity evaluated against alpha-2,3-sialyltransferase from rat liver.

Experiment [2] concerns the target T2, Beta-galactoside alpha-2,6-sialyltransferase 1 (Rattus norvegicus, UniProt P13721).
T2 sequence (P13721 whole entry): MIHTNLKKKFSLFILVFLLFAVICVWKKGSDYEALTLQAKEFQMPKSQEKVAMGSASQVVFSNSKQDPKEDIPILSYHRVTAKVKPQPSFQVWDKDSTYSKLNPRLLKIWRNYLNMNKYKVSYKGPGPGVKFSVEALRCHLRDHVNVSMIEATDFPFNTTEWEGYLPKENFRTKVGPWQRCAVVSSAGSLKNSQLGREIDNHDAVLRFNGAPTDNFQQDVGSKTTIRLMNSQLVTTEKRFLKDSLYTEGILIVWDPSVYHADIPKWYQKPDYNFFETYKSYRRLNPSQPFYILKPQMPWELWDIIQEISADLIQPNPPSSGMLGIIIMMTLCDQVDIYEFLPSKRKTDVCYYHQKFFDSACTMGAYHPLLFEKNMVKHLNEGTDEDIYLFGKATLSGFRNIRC
Put plainly: Inhibitory activity evaluated against alpha-2,6-sialyltransferase from rat liver.

Each structure is given as a SMILES string.

One may read the Ki as a dissociation constant, usually derived from enzyme kinetics or from competition with a known ligand.

On to `C[C@H](NP(=O)(O)OC[C@H]1OC(n2ccc(N)nc2=O)[C@H](O)C1O)C(=O)O` (single isomer, unassigned), for which the inhibition constant (Ki) was 2300 µM in experiment [1] and 1700 µM in experiment [2].

As for `Nc1ccn(C2O[C@H](COP(=O)(O)N[C@@H](Cc3ccccc3)C(=O)O)C(O)[C@H]2O)c(=O)n1` (single isomer, unassigned), the Ki in experiment [1] came to 2300 µM; in experiment [2] it was 3800 µM.

`CC(C)C[C@H](NP(=O)(O)OC[C@H]1OC(n2ccc(N)nc2=O)[C@H](O)C1O)C(=O)O` (single isomer, unassigned): the Ki in experiment [1] came to 900 µM; in experiment [2], 2500 µM.

For `Nc1ccn(C2O[C@H](COP(=O)(O)N[C@@H](Cc3c[nH]c4ccccc34)C(=O)O)C(O)[C@H]2O)c(=O)n1` (single isomer, unassigned), the Ki was determined as 300 µM in experiment [1] and 730 µM in experiment [2].

In the case of `Nc1ccn([C@@H]2O[C@H](COP(=O)(O)O)[C@@H](O)[C@H]2O)c(=O)n1`, the Ki in experiment [1] turned out to be 65 µM; in experiment [2], 64 µM.

Consider `Nc1ccn(C2O[C@H](COP(=O)(O)NCC(=O)O)C(O)[C@H]2O)c(=O)n1` (single isomer, unassigned), for which the Ki in experiment [1] turned out to be 5300 µM; in experiment [2], 2400 µM.

Consider `Nc1ccn(C2O[C@H](COP(=O)(O)OCC(=O)O)C(O)[C@H]2O)c(=O)n1` (single isomer, unassigned), for which the values for the Ki in experiment [1] and in experiment [2] were 710 µM and 370 µM, respectively.

Consider `Nc1ccn(C2O[C@H](COP(=O)(O)N[C@@H](CC(=O)O)C(=O)O)C(O)[C@H]2O)c(=O)n1` (single isomer, unassigned), for which the values for the Ki in experiment [1] and in experiment [2] were 5100 µM and 2200 µM, respectively.

The values are drawn from ChEMBL document CHEMBL1146629, “Synthesis and evaluation of phosphoramidate amino acid-based inhibitors of sialyltransferases” (Bioorg Med Chem Lett, 2003).
